Reference: BigSolDB 2.1

O=C(O)c1ccccc1
Conditions	solubility (mole fraction)
in 2-butanone, 278.65 K	0.131
in 2-butanone, 284.29 K	0.148
in 2-butanone, 289.86 K	0.166
in 2-butanone, 295.54 K	0.186
in 2-butanone, 301.27 K	0.206
in 2-butanone, 307.1 K	0.229
in 2-butanone, 313.04 K	0.254
in 2-butanone, 319.06 K	0.281
in 2-butanone, 325.2 K	0.311
in MIBK, 276.45 K	0.11
in MIBK, 281.66 K	0.124
in MIBK, 287.16 K	0.139
in MIBK, 292.73 K	0.156
in MIBK, 298.25 K	0.175
in MIBK, 303.76 K	0.195
in MIBK, 309.36 K	0.217
in MIBK, 315.05 K	0.242
in MIBK, 320.74 K	0.264
in MIBK, 325.16 K	0.281
in ethyl acetate, 279.67 K	0.105
in ethyl acetate, 285.24 K	0.121
in ethyl acetate, 289.24 K	0.133
in ethyl acetate, 293.36 K	0.146
in ethyl acetate, 298.93 K	0.167
in ethyl acetate, 303.76 K	0.186
in ethyl acetate, 308.76 K	0.206
in ethyl acetate, 313.66 K	0.228
in ethyl acetate, 318.65 K	0.252
in ethyl acetate, 323.56 K	0.278
in ethyl acetate, 326.5 K	0.306
in isopropyl acetate, 276.27 K	0.0855
in isopropyl acetate, 283.74 K	0.105
in isopropyl acetate, 288.69 K	0.118
in isopropyl acetate, 293.67 K	0.134
in isopropyl acetate, 298.34 K	0.15
in isopropyl acetate, 303.36 K	0.168
in isopropyl acetate, 308.33 K	0.188
in isopropyl acetate, 313.25 K	0.209
in isopropyl acetate, 318.25 K	0.232
in isopropyl acetate, 324.02 K	0.26
in methanol, 278 K	0.111
in methanol, 285.5 K	0.129
in methanol, 292.23 K	0.145
in methanol, 298.99 K	0.164
in methanol, 304.78 K	0.18
in methanol, 312.56 K	0.204
in methanol, 319.32 K	0.227
in methanol, 323.49 K	0.241
in n-butanol, 276.92 K	0.116
in n-butanol, 281.92 K	0.13
in n-butanol, 291.77 K	0.16
in n-butanol, 296.56 K	0.176
in n-butanol, 301.56 K	0.194
in n-butanol, 311.66 K	0.234
in n-butanol, 316.79 K	0.256
in n-butanol, 321.9 K	0.279
in n-butanol, 327.3 K	0.306
in n-propanol, 279.06 K	0.119
in n-propanol, 284.15 K	0.133
in n-propanol, 289.26 K	0.148
in n-propanol, 294.47 K	0.164
in n-propanol, 299.65 K	0.182
in n-propanol, 304.75 K	0.2
in n-propanol, 310.06 K	0.221
in n-propanol, 315.41 K	0.242
in n-propanol, 320.77 K	0.266
in n-propanol, 326.16 K	0.291

CC(=O)Oc1ccccc1C(=O)O
Conditions	solubility (mole fraction)
in MIBK, 277.46 K	0.0196
in MIBK, 281.76 K	0.023
in MIBK, 287.96 K	0.0283
in MIBK, 292.96 K	0.0331
in MIBK, 300.18 K	0.0414
in MIBK, 307.27 K	0.0511
in MIBK, 312.47 K	0.0594
in MIBK, 318.36 K	0.07
in MIBK, 327.95 K	0.0897
in ethyl acetate, 275.86 K	0.0154
in ethyl acetate, 283.66 K	0.0204
in ethyl acetate, 289.86 K	0.0254
in ethyl acetate, 296.16 K	0.0313
in ethyl acetate, 302.67 K	0.0384
in ethyl acetate, 308.68 K	0.0467
in ethyl acetate, 315.16 K	0.0564
in ethyl acetate, 321.37 K	0.0676
in ethyl acetate, 327.91 K	0.0807
in isobutanol, 276.36 K	0.0098
in isobutanol, 284.46 K	0.0151
in isobutanol, 289.27 K	0.0194
in isobutanol, 294.3 K	0.0247
in isobutanol, 299.16 K	0.0309
in isobutanol, 303.65 K	0.0383
in isobutanol, 308.26 K	0.0469
in isobutanol, 312.61 K	0.0567
in isobutanol, 316.87 K	0.0679
in isobutanol, 320.96 K	0.0807
in isobutanol, 322.96 K	0.0875
in isobutanol, 326.57 K	0.1
in isobutyl acetate, 277.86 K	0.0109
in isobutyl acetate, 281.16 K	0.0124
in isobutyl acetate, 287.78 K	0.0157
in isobutyl acetate, 293.97 K	0.0198
in isobutyl acetate, 300.25 K	0.0247
in isobutyl acetate, 307.15 K	0.0306
in isobutyl acetate, 313.56 K	0.0376
in isobutyl acetate, 320.16 K	0.046
in isobutyl acetate, 327.15 K	0.0559
in n-butanol, 277.66 K	0.0145
in n-butanol, 282.35 K	0.0183
in n-butanol, 287.35 K	0.0232
in n-butanol, 292.35 K	0.0291
in n-butanol, 297.37 K	0.036
in n-butanol, 301.66 K	0.044
in n-butanol, 306.16 K	0.0531
in n-butanol, 310.35 K	0.0635
in n-butanol, 314.64 K	0.0752
in n-butanol, 318.75 K	0.0883
in n-butanol, 323.44 K	0.103
in n-propanol, 276.36 K	0.0164
in n-propanol, 282.96 K	0.0227
in n-propanol, 288.16 K	0.0286
in n-propanol, 293.16 K	0.0354
in n-propanol, 297.85 K	0.0434
in n-propanol, 302.55 K	0.0527
in n-propanol, 307.06 K	0.0632
in n-propanol, 311.66 K	0.0752
in n-propanol, 316.06 K	0.0887
in n-propanol, 320.45 K	0.104
in n-propanol, 324.75 K	0.121
